# Assay results from patent US10851067B2, “Kv7 channel activators compositions and methods of use” (Knopp Biosciences LLC, priority 2018, dated 2020).
# Target: Kv7.2/7.3 (Homo sapiens, UniProt O43525+O43526)
# Experiment: Kv7.2/7.3 Activation Assay, QPatch single concentration screen
# Assay type: cell-based
# Design: host or cells: HEK cells, tetracycline-inducible expression; key: 1.2-2.9 (+); 3-3.9 (++); >4 (+++) fold increase over baseline; O represents open channel at holding potential
# Conditions: Kv7.2/Kv7.3 co-expressing HEK cells, compound concentration 3 μM, steady-state current at end of 2 s pulse to −30 mV
# In short: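 Tetracycline-induced HEK cells expressing human Kv7.2/7.3, recorded 24 h post-induction by automated planar patch clamp. From −80 mV, 2 s steps to −30 mV then 100 ms to −120 mV; compound tested at 3 μM (0.1% DMSO). Steady-state current at end of −30 mV step gives fold increase over baseline.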
row,Structure (SMILES),Kv7.2/7.3 Activity: increase over baseline in current
1,"CC1(C)C[C@@H]1C(=O)Nc1nc2c(F)cc(C#N)cc2n1C(C)(C)C [Example 372, (S)-N-(1-(tert-butyl)-6-cyano-4-fluoro-1H-benzo[d]imidazol-2-yl)-2,2-dimethylcyclopropane-1-carboxamide]",++ (3-3.9 (++))
2,"CC(C)(C)CC(=O)Nc1nc2c(Cl)cc(C#N)cc2n1C1CCC1 [Example 377, N-(4-chloro-6-cyano-1-cyclobutyl-1H-benzo[d]imidazol-2-yl)-3,3-dimethylbutanamide]",+++ (>4 (+++) fold increase over baseline)
3,"CC(C)(C)n1c(NC(=O)CC(C)(C)C(F)(F)F)nc2c(F)cc(C#N)cc21 [Example 378, N-(1-(tert-butyl)-6-cyano-4-fluoro-1H-benzo[d]imidazol-2-yl)-4,4,4-trifluoro-3,3-dimethylbutanamide]",+++ (>4 (+++) fold increase over baseline)
4,"COc1cc(Br)cc2c1nc(NC(=O)CC(C)(C)C)n2C1CCC1 [Example 382, N-(6-bromo-1-cyclobutyl-4-methoxy-1H-benzo[d]imidazol-2-yl)-3,3-dimethylbutanamide]",+++ (>4 (+++) fold increase over baseline)
5,"CC(C)(C)CC(=O)Nc1nc2ccc(C#N)c(F)c2n1C(C)(C)C [Example 387, N-(1-(tert-butyl)-6-cyano-7-fluoro-1H-benzo[d]imidazol-2-yl)-3,3-dimethylbutanamide]",++ (3-3.9 (++))
6,"CC(C)(C)CC(=O)Nc1nc2c(F)cc(OCc3ccccc3)cc2n1C1CCC1 [Example 388, N-(6-(benzyloxy)-1-cyclobutyl-4-fluoro-1H-benzo[d]imidazol-2-yl)-3,3-dimethylbutanamide]",+++ (>4 (+++) fold increase over baseline)
7,"COc1cc(Br)cc2c1nc(NC(=O)CC(C)(C)C)n2C1(C)CCC1 [Example 392, N-(6-bromo-4-methoxy-1-(1-methylcyclobutyl)-1H-benzo[d]imidazol-2-yl)-3,3-dimethylbutanamide]",+++ (>4 (+++) fold increase over baseline)
8,"CC(C)(C)CC(=O)Nc1nc2ccc(OC(F)F)cc2n1C(C)(C)C [Example 393, N-(1-(tert-butyl)-6-(difluoromethoxy)-1H-benzo[d]imidazol-2-yl)-3,3-dimethylbutanamide]",+++ (>4 (+++) fold increase over baseline)
9,"COCc1c(F)ccc2nc(NC(=O)CC(C)(C)C)n(C3CCC3)c12 [Example 394, N-(1-cyclobutyl-6-fluoro-7-(methoxymethyl)-1H-benzo[d]imidazol-2-yl)-3,3-dimethylbutanamide]",O
10,"COCc1c(Cl)ccc2nc(NC(=O)CC(C)(C)C)n(C3CCC3)c12 [Example 399, N-(6-chloro-1-cyclobutyl-7-(methoxymethyl)-1H-benzo[d]imidazol-2-yl)-3,3-dimethylbutanamide]",+++ (>4 (+++) fold increase over baseline)
11,"CC(C)(O)c1ccc2nc(NC(=O)CC(C)(C)C3CC3)n(CC(F)(F)F)c2c1 [Example 406, 3-cyclopropyl-N-(6-(2-hydroxypropan-2-yl)-1-(2,2,2-trifluoroethyl)-1H-benzo[d]imidazol-2-yl)-3-methylbutanamide]",+++ (>4 (+++) fold increase over baseline)
12,"C[C@H](C(=O)Nc1nc2ccc(C(C)(C)O)cc2n1CC(F)(F)F)C(C)(C)C [Example 407, (S)-N-(6-(2-hydroxypropan-2-yl)-1-(2,2,2-trifluoroethyl)-1H-benzo[d]imidazol-2-yl)-2,3,3-trimethylbutanamide]",++ (3-3.9 (++))
13,"CC(C)(C)CC(=O)Nc1nc2c(F)cc(C#N)cc2n1C1CCC1 [Example 411, N-(6-cyano-1-cyclobutyl-4-fluoro-1H-benzo[d]imidazol-2-yl)-3,3-dimethylbutanamide]",+++ (>4 (+++) fold increase over baseline)

# Continued, values first:
row,Kv7.2/7.3 Activity: increase over baseline in current,Structure (SMILES)
1,O,"C[C@@H](CC(=O)Nc1nc2ccc(C(C)(C)O)cc2n1C1CCC1)c1ccccc1 [Example 369, (S)-N-(1-cyclobutyl-6-(2-hydroxypropan-2-yl)-1H-benzo[d]imidazol-2-yl)-3-phenylbutanamide]"
2,++ (3-3.9 (++)),"CC(CF)(CF)CC(=O)Nc1nc2ccc(C(C)(C)O)cc2n1C1CCC1 [Example 370, N-(1-cyclobutyl-6-(2-hydroxypropan-2-yl)-1H-benzo[d]imidazol-2-yl)-4-fluoro-3-(fluoromethyl)-3-methylbutanamide]"
3,++ (3-3.9 (++)),"CC(C)(CC(=O)Nc1nc2ccc(C#N)cc2n1C1(C)CCC1)C1CC1 [Example 379, N-(6-cyano-1-(1-methylcyclobutyl)-1H-benzo[d]imidazol-2-yl)-3-cyclopropyl-3-methylbutanamide]"
4,+ (1.2-2.9 (+)),"CC(C)(O)CC(=O)Nc1nc2cccc(OC(F)(F)F)c2n1C1CCC1 [Example 380, N-(1-cyclobutyl-7-(trifluoromethoxy)-1H-benzo[d]imidazol-2-yl)-3-hydroxy-3-methylbutanamide]"
5,++ (3-3.9 (++)),"CC(C)(C)CC(=O)Nc1nc2c(OC(F)F)cc(C#N)cc2n1C1(C)CCC1 [Example 381, N-(6-cyano-4-(difluoromethoxy)-1-(1-methylcyclobutyl)-1H-benzo[d]imidazol-2-yl)-3,3-dimethylbutanamide]"
6,++ (3-3.9 (++)),"C[C@H](C(=O)Nc1nc2ccc(C(C)(C)O)cc2n1C1(C)CCC1)C(C)(C)C [Example 383, (S)-N-(6-(2-hydroxypropan-2-yl)-1-(1-methylcyclobutyl)-1H-benzo[d]imidazol-2-yl)-2,3,3-trimethylbutanamide]"
7,O,"CC(C)(O)c1cc(F)c2nc(NC(=O)CC(C)(C)C(F)(F)F)n(C3CCC3)c2c1F [Example 385, N-(1-cyclobutyl-4,7-difluoro-6-(2-hydroxypropan-2-yl)-1H-benzo[d]imidazol-2-yl)-4,4,4-trifluoro-3,3-dimethylbutanamide]"
8,+ (1.2-2.9 (+)),"CC(C)(O)c1ccc2nc(NC(=O)CC(C)(C)C(F)F)n(C3CCC3)c2c1 [Example 386, N-(1-cyclobutyl-6-(2-hydroxypropan-2-yl)-1H-benzo[d]imidazol-2-yl)-4,4-difluoro-3,3-dimethylbutanamide]"
9,++ (3-3.9 (++)),"CC(C)(C)CC(=O)Nc1nc2ccc(OC(F)F)cc2n1C1CCC1 [Example 389, N-(1-cyclobutyl-6-(difluoromethoxy)-1H-benzo[d]imidazol-2-yl)-3,3-dimethylbutanamide]"
10,+ (1.2-2.9 (+)),"CC(C)(CC(=O)Nc1nc2c(F)cc(OC(F)F)cc2n1C1CCC1)C1CC1 [Example 390, N-(1-cyclobutyl-6-(difluoromethoxy)-4-fluoro-1H-benzo[d]imidazol-2-yl)-3-cyclopropyl-3-methylbutanamide]"
11,+ (1.2-2.9 (+)),"CC1(CC(=O)Nc2nc3ccc(C(C)(C)O)cc3n2C2(C)CCC2)CC1 [Example 391, N-(6-(2-hydroxypropan-2-yl)-1-(1-methylcyclobutyl)-1H-benzo[d]imidazol-2-yl)-2-(1-methylcyclopropyl)acetamide]"
12,++ (3-3.9 (++)),"CC(C)(C)CC(=O)Nc1nc2ccc(C#N)cc2n1C(C)(C)C(F)(F)F [Example 401, N-(6-cyano-1-(1,1,1-trifluoro-2-methylpropan-2-yl)-1H-benzo[d]imidazol-2-yl)-3,3-dimethylbutanamide]"
13,++ (3-3.9 (++)),"CC1(CC(=O)Nc2nc3c(F)cc(C(C)(C)O)cc3n2C2CCC2)CC1 [Example 403, N-(1-cyclobutyl-4-fluoro-6-(2-hydroxypropan-2-yl)-1H-benzo[d]imidazol-2-yl)-2-(1-methylcyclopropyl)acetamide]"
14,+ (1.2-2.9 (+)),"CC(C)(O)c1ccc2nc(NC(=O)CC(C)(C)C(F)(F)F)n(C34CC(C3)C4)c2c1 [Example 404, N-(1-(bicyclo[1.1.1]pentan-1-yl)-6-(2-hydroxypropan-2-yl)-1H-benzo[d]imidazol-2-yl)-4,4,4-trifluoro-3,3-dimethylbutanamide]"
15,++ (3-3.9 (++)),"CC(C)(O)c1cc(F)c2nc(NC(=O)CC3CC(F)(F)C3(F)F)n(C3CCC3)c2c1 (stereo not shown) [Example 405, N-(1-cyclobutyl-4-fluoro-6-(2-hydroxypropan-2-yl)-1H-benzo[d]imidazol-2-yl)-2-(2,2,3,3-tetrafluorocyclobutyl)acetamide]"
16,++ (3-3.9 (++)),"CC(C)(CC(=O)Nc1nc2cccc(F)c2n1C1CCC1)C(F)(F)F [Example 408, N-(1-cyclobutyl-7-fluoro-1H-benzo[d]imidazol-2-yl)-4,4,4-trifluoro-3,3-dimethylbutanamide]"
17,+ (1.2-2.9 (+)),"CC1(n2c(NC(=O)CC(O)(c3ccccc3)C(F)(F)F)nc3c(F)cc(OC(F)F)cc32)CCC1 (stereo not shown) [Example 409, N-(6-(difluoromethoxy)-4-fluoro-1-(1-methylcyclobutyl)-1H-benzo[d]imidazol-2-yl)-4,4,4-trifluoro-3-hydroxy-3-phenylbutanamide]"
18,O,"C[C@@H](CC(=O)Nc1nc2c(F)cc(C(C)(C)O)cc2n1C1CCC1)c1ccccc1 [Example 410, (S)-N-(1-cyclobutyl-4-fluoro-6-(2-hydroxypropan-2-yl)-1H-benzo[d]imidazol-2-yl)-3-phenylbutanamide]"
